One assay deals with T1, hAGT (Homo sapiens, UniProt P16455).
T1 sequence (P16455 1-207): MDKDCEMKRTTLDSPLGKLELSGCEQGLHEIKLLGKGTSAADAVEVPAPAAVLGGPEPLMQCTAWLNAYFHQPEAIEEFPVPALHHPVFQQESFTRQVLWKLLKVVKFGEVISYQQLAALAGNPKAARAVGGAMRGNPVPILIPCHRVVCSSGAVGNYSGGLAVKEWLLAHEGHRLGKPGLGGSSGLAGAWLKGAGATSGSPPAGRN
Conditions: reaction with hAGT; cited from earlier work.

The target in assay [1] is T2, ^PGEAhAGT-GST (Homo sapiens, UniProt P16455, G160A/N157G/S159E).
T2 sequence (P16455 1-207 N157G/S159E/G160A): T1 sequence (P16455 1-207) with N157G, S159E, G160A
The assay can be described thus: Reactivity with hAGT fusion protein: pre-incubation with compound, then biotinylated O^6-benzylguanine-oligonucleotide, Western Blot (anti-biotin). Conditions: 18 pmol protein, 0.2 μL of 5 mM compound in 15 μL 50 mM HEPES pH 7.5, 1 h, then 10 pmol biotinylated oligonucleotide 15 min. Format: biochemical. (A western blot detects proteins with antibodies after separation by electrophoresis.)
Method: Lane marked “C” (control): The reaction product of ^[…] and the biotinylated O^6-benzylguanine oligonucleotide. […] Damoiseaux et al., ChemBiochem 4: 285-287, 2001) is added, and the reaction is allowed to continue for further 15 min. As a control 18 pmol ^[…] are incubated with 10 pmol of the same biotinylated oligonucleotide in a total volume of 15 μL of 50 mM HEPES pH 7.5 for 15 min without any substrate. Detection of the biotinylated reaction product between ^[…] and the biotinylated oligonucleotide is performed by Western Blotting using an anti-biotin conjugate coupled to HRP (Pierce).

In assay [2] the target is T2, ^PGEAhAGT-GST. The assay can be described thus: Labelling of hAGT fusion protein, Western Blot with anti-fluorescein antibody. Format: biochemical. Conditions: 18 pmol ^PGEAhAGT-GST, 0.5 nmol compound, 15 μL 50 mM HEPES pH 7.5. The protocol:
Lanes 1 and 2 (two different concentrations) show the reaction product of compound 60 bearing a fluorescein label and a biotin label (a compound of formula 1 wherein L is a plurality of labels) with ^PGEAhAGT-GST.
18 pmol ^PGEAhAGT-GST are incubated with 0.5 nmol 60 in a total volume of 15 μL of 50 mM HEPES pH 7.5. The reaction product is detected by Western Blotting using a goat anti-fluorescein antibody (Rockland) and a HRP conjugated anti-goat antibody (Sigma).

The next assay has as its target T3, GST-^3HYhAGT (Homo sapiens, UniProt P16455, A127T/K125A/N157G/R128A/S159E).
T3 construct: made in house; host or cells: E. coli
T3 sequence (P16455 1-207 K125A/A127T/R128A/N157G/S159E): T1 sequence (P16455 1-207) with K125A, A127T, R128A, N157G, S159E
As to the kind of experiment: In vitro reactivity against GST-^3HYhAGT followed by Western Blotting with anti-methotrexate antibody. Format: biochemical. Here is the method:
GST-^3HYhAGT is incubated with an excess of 78 or 79 and the reaction is followed by Western Blotting using an anti-methotrexate antibody. […] Accordingly, at concentrations of 78 of 1 μM and at an excess of 78 over ^3HYhAGT (pseudo first-order conditions), 50% of the protein is labelled in less than 10 min.
For the construction of hAGT fusion proteins, preferably the mutant Asn157Gly Ser159Glu is used. […] The rationale behind the introduction of these mutations is to minimize the interaction of hAGT fusion proteins with DNA in the three-hybrid system. The resulting hAGT mutant carrying the five mutations described above is abbreviated as ^3HYhAGT.

In assay [3] the test system is yeast L40 expressing LexA and B42 fusion proteins of ^3HYhAGT and DHFR. The assay can be described thus: Growth assay of yeast L40 strains on plates lacking histidine (HIS3 reporter, three-hybrid system). Format: cell-based. Conditions: for Growth rate: plates lacking histidine. Here is the method: Pairs of plasmids encoding LexA-^3HYhAGT and B42-DHFR fusion proteins are transformed into the yeast strain L40 in which the reconstitution of functional LexA-B42 transcription factor leads to transcription of the reporter genes HIS3 and lacZ. It is tested if the expression of different combinations of fusion protein in the presence of either 78 or 79 complemented the histidine auxotrophy of the yeast L40 (Table 1). […] No growth is observed in the absence of 78 or 79.
In principal, the reconstitution of functional transcription factor through benzyl guanine 78 and 79 is independent of which ligand-binding protein is fused to LexA and which to B42. To verify this assumption the growth of yeast L40 co-expressing LexA-DHFR and B42-^3HYhAGT on plates lacking histidine but containing compounds 78 or 79 is examined.

In assay [4] the test system is yeast strain L40 expressing LexA and B42 fusion proteins of ^3HYhAGT and DHFR. As to the kind of experiment: Quantitative β-galactosidase assay using ONPG (lacZ reporter) in yeast L40. Format: cell-based. Conditions: 1 μM, cell extracts of liquid cultures. Here is the method: The activation of transcription of the lacZ reporter gene by the benzyl guanine based compounds 78 and 79 in the yeast strain L40 expressing different combinations of LexA and B42 fusion proteins is examined (Table 2). In this assay, the activity of the product of the lacZ gene, β-galactosidase, is determined by measuring the hydrolysis rate of the chromogenic substrate o-nitrophenyl-β-D-galactopyranoside (ONPG) in cell extracts of liquid cultures.

Setting [5] is: co-expression of LexA-DHFR and B42-^3HYhAGT.
Setting [6] is: co-expression of LexA-^3HYhAGT and B42-DHFR.

Molecules are shown by their SMILES. Substitutions are numbered along the chain they refer to.

Take `Nc1nc(OCc2ccccc2)c2nc[nH]c2n1` [O^6-benzylguanine]: on hAGT, the “second order rate constant” value was “approximately 10^3 sec^−1 M^−1”.
Regarding `NCCOCCOCCOCCn1cc(COc2nc(N)nc3[nH]cnc23)nn1` [compound 11, O^6-(1-[11-Amino-3,6,9-trioxaundecyl]-1,2,3-triazolyl-4-methyl)guanine], at ^PGEAhAGT-GST [1], the “reaction of ^PGEAhAGT-GST with biotinylated oligonucleotide after first reacting with the compound” value is “no further reaction with biotinylated oligonucleotide is observed”.
As for `Nc1nc(OCc2ccc(COCCOCCOCCOCCNC(=O)C(CCCCNC(=O)CCCCCNC(=O)c3ccc(-c4c5ccc(=O)cc-5oc5cc(O)ccc45)c(C(=O)O)c3)NC(=O)CCCCCNC(=O)CCCC[C@H]3SC[C@H]4NC(=O)N[C@H]43)cc2)c2nc[nH]c2n1` (stereo partly drawn) [compound 60, O^6-Benzylguanine-PEG-amino-α-N-(biotinyl-6-aminocaproyl)-ε-N-(6-[fluorescein-5-carbonyl]-aminocaproyl)-lysine], at ^PGEAhAGT-GST [2], the “substrate for hAGT (reaction product detected by Western Blotting)” value was “efficient substrate for hAGT”.
For `CN(Cc1cnc2nc(N)nc(N)c2n1)c1ccc(C(=O)N[C@@H](CCC(=O)NCCCCCCCCCCCC(=O)NCc2ccc(COc3nc(N)nc4[nH]cnc34)cc2)C(=O)O)cc1` [compound 78], the “time in which 50% of the protein is labelled” value at GST-^3HYhAGT (1 μM 78, excess over ^3HYhAGT, pseudo first-order conditions) is reported as “less than 10 min”. The kinact/KI on GST-^3HYhAGT (GST-^3HYhAGT incubated with an excess of compound, read-out: second-order rate constant) is approximately 1500 M⁻¹ s⁻¹. The Growth rate result in assay [3] (LexA-DHFR/ B42-^3HYhAGT, 1 μM) is listed as “++ (detection of colonies within 3 days)”; in assay [3] (LexA-^3HYhAGT/ B42-DHFR, 1 μM), “+++ (detection of colonies within 2 days)”. Also, the “growth of yeast L40 on plates lacking histidine (in words)” value in assay [3] (setting [5]) was “growth dependent on compounds 78 or 79 is observed”; in assay [3] (setting [6]), “allows yeast L40 to grow on plates lacking histidine”. In addition, the figures for the ONPG hydrolysis in assay [4] (LexA-DHFR/ B42-^3HYhAGT) and in assay [4] (LexA-^3HYhAGT/ B42-DHFR) were 28 nM of o-nitrophenol formed per min per mg total protein and 865 nM of o-nitrophenol formed per min per mg total protein, respectively.
At GST-^3HYhAGT (GST-^3HYhAGT incubated with an excess of compound), `CN(Cc1cnc2nc(N)nc(N)c2n1)c1ccc(C(=O)NC(CCC(=O)NCCOCCOCCOCCOCc2ccc(COc3nc(N)nc4nc[nH]c34)cc2)C(=O)O)cc1` (stereo not drawn) [compound 79, O^6-4-[13-N-(4-{4-[N-(2,4-Diamino-6-pteridinylmethyl)-methylamino]-benzoyl-amino}-4-carboxybutanoyl)-amino-2,5,8,11-tetraoxatridecyl]-benzyl guanine] showed a second-order rate constant of approximately 900 sec^−1M^−1. The Growth rate result in assay [3] (LexA-DHFR/ B42-^3HYhAGT, 10 μM) is recorded as “++ (detection of colonies within 3 days)”; in assay [3] (LexA-^3HYhAGT/ B42-DHFR, 10 μM), “+++ (detection of colonies within 2 days)”. Also, the “growth of yeast L40 on plates lacking histidine (in words)” value in assay [3] (setting [5]) is on record as “growth dependent on compounds 78 or 79 is observed”; in assay [3] (setting [6]), “allows yeast L40 to grow on plates lacking histidine”. In addition, the results for the ONPG hydrolysis in assay [4] (LexA-DHFR/ B42-^3HYhAGT) and in assay [4] (LexA-^3HYhAGT/ B42-DHFR) were 24 nM of o-nitrophenol formed per min per mg total protein and 63 nM of o-nitrophenol formed per min per mg total protein, respectively.

The values above are taken from US7799524B2, “Substrates for O6-alkylguanina-DNA alkyltransferase” (Ecole Polytechnique Ferdeale de Lausanne, priority 2002, dated 2010).
